Results reported in US8440695B2 (St Jude Children's Research Hospital, priority 2005, dated 2013).
“Also recorded” adds a separate entry of the source. One block for each molecule: values may come before it.

Tests used:
p53 = settings: low dose chloroquine, 3.5 mg/kg per injection i.p.
Excerpt: (§1) However, low level activation of ATM as detected with an antibody that recognizes serine phosphorylation at residue 1981, may also be used in the assay.

[1] = system: subjects with the metabolic syndrome; experiment: Hyperinsulinemic-euglycemic clamp in subjects with the metabolic syndrome; assay type: in vivo, human
Experimental: (§2) Glucose and insulin tolerance tests are generally performed using D-glucose (1 g/kg) and insulin (0.75 U/kg), which are administered in separate procedures followed by serial measurements of blood glucose. If necessary, an oral glucose tolerance test (OGTT) will be performed the day after completing the clamp. After an overnight fast, an intravenous catheter will be placed, baseline labs will be obtained, 75 g of glucose will be consumed, and blood glucose, insulin, C peptide, and glucagon will be determined every half hour for 2 hours.
Two subjects with the metabolic syndrome have completed the protocol. The mean glucose infusion rate to maintain euglycemia (90 mg/dl) at steady state during the first stage of the clamp (using an insulin infusion rate of 15 mU/m^2/min) for these two subjects was determined.
Clamps are performed with infusion of stable isotope-labeled glucose to allow the determination of both glucose disposal rates and hepatic glucose output during hyperinsulinemic-euglycemic clamps in subjects with the metabolic syndrome. The results are presented as the mean for two subjects.

[2] = Body weight, metabolic rate (indirect calorimetry) and fasting serum lipids in mice; assay type: in vivo, mouse; settings: ATM^+/+ apoE^−/− mice, 7 mg/kg/week, 4 and 8 weeks Western diet
Experimental: (§5) The mice were then fed the Western-type diet as described.
All of these experiments were performed using ATM^+/+ apoE^−/− littermate mice beginning at the age of 8 weeks.
Serum is generally obtained after a four hour fast and assayed for routine chemistries (glucose, triglycerides, cholesterol, and non-esterified fatty acids) using an automated plate reader connected to a computer, as described by Li et al., Nat.

ATM [3] = molecular target: T1, ATM (Homo sapiens, UniProt Q13315); experiment: ATM activation in cultured cells; assay type: cell-based; set-up: endogenous in cells; settings: low concentrations
Excerpt: as §1
Target sequence in this assay (Q13315 whole entry, species assumed): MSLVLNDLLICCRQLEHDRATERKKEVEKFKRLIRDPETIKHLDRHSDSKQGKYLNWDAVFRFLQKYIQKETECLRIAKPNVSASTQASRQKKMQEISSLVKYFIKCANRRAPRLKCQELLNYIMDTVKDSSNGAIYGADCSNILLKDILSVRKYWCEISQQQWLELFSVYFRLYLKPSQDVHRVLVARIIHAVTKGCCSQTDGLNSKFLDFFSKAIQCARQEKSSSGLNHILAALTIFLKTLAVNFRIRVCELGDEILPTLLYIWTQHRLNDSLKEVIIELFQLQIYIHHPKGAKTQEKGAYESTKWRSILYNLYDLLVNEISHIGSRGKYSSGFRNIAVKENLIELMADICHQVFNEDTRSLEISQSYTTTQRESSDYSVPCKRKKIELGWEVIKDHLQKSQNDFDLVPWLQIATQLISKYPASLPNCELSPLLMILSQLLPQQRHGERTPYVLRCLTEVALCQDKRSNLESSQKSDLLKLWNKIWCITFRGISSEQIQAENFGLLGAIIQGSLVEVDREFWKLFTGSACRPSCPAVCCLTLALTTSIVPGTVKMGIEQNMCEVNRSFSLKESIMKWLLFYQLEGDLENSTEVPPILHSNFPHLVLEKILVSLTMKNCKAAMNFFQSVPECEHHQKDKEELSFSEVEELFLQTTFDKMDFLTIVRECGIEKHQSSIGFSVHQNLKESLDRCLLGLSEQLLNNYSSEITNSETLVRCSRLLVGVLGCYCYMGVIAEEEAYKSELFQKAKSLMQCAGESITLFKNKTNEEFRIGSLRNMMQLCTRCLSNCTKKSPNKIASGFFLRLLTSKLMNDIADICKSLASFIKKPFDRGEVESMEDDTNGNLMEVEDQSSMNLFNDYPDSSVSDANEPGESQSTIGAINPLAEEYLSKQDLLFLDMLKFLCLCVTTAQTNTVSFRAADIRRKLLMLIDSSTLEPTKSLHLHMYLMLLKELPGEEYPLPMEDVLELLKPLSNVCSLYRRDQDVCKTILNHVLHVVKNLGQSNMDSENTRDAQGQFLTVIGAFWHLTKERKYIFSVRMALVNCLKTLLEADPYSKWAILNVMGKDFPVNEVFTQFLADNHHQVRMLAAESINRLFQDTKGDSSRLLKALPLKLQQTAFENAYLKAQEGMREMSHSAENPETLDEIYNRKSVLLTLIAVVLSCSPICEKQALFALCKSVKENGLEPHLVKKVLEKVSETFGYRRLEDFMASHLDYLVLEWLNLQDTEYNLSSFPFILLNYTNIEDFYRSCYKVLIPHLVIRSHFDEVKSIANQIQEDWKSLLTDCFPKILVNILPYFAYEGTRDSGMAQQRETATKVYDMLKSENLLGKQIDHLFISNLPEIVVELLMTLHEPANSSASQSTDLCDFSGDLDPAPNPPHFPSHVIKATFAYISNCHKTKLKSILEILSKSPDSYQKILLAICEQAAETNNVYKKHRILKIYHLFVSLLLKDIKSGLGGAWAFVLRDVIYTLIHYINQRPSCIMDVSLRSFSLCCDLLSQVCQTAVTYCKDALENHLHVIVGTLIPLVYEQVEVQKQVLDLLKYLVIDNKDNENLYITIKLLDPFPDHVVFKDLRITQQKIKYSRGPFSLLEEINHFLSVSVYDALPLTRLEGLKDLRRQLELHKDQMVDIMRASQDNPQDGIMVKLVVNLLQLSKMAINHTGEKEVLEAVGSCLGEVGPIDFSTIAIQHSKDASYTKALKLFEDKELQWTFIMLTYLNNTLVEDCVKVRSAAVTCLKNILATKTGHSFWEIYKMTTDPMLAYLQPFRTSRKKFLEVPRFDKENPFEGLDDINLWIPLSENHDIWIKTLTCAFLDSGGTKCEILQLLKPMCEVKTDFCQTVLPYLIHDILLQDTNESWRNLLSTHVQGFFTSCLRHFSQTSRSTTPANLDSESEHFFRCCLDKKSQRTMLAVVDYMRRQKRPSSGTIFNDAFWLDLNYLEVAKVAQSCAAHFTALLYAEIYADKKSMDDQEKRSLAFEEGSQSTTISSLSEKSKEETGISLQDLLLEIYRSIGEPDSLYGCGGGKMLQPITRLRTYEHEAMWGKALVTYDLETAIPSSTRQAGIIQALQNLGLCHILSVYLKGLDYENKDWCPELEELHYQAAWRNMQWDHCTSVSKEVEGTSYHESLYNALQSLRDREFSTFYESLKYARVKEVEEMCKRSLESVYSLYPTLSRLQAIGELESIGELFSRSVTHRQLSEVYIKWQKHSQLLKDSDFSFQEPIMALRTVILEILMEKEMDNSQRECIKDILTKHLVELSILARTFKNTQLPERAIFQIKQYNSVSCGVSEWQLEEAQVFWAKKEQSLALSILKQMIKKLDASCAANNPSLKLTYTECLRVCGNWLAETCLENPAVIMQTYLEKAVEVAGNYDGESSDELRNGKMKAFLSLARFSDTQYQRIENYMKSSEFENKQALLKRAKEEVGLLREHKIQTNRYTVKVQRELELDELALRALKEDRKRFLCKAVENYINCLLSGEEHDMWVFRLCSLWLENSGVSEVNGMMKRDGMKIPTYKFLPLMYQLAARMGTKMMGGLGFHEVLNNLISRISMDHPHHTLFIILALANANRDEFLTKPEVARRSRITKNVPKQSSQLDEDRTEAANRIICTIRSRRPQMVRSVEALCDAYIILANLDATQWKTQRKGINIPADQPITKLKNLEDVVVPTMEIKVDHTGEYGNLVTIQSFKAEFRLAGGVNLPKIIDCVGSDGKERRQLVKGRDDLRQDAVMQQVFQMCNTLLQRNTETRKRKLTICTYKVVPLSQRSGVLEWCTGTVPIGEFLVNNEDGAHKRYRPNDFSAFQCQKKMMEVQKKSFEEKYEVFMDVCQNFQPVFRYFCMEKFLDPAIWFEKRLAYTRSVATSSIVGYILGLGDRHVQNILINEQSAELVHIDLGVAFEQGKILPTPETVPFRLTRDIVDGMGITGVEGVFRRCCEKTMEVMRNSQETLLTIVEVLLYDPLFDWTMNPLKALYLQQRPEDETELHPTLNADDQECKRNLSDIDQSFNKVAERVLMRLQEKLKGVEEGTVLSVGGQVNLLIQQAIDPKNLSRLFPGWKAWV

retina = settings: several groups; cited from earlier work
[4] = system: patients with type 2 diabetes; settings: cited from earlier work
[5] = system: subjects with the metabolic syndrome; experiment: Ambulatory blood pressure, glucose tolerance test and body weight in subjects with the metabolic syndrome; assay type: in vivo, human; settings: two subjects
Experimental: as §2

ob/ob mice = experiment: Blood glucose and fasting insulin in ob/ob mice; assay type: in vivo, mouse
Experimental: (§3) Two month old male db/db (Lepr^db; LEPR-deficient mice having excess adiposity) mice and ob/ob (Lep^ob, genetically obese) mice were purchased from Harlan (Indianapolis, Ind.) and the Jackson Laboratory, respectively.
(§4) Blood glucose in male db/db mice were treated with either CHQ or saline. Baseline represents the average fed blood glucose levels of the 12 db/db mice.

[6] = system: ATM^+/+apoE^−/− and ATM^−/−apoE^−/− mice; experiment: Intraperitoneal glucose tolerance test in Western diet-fed mice; assay type: in vivo, mouse
Experimental: For glucose tolerance and insulin tolerance tests, mice were fasted and injected with 10% D-glucose (1 g/kg) or human regular insulin (0.75 units/kg body weight, Eli Lilly and Co., Indianapolis, Ind.) in procedures separated by at least one week. Tail vein blood (5-10 µl) was assayed for glucose at 0, 30, 60, and 120 minutes. Blood glucose was assayed using a glucose meter (Hemocue, Mission Viejo, Calif. or Becton Dickinson, San Jose, Calif.). The area under the glucose and insulin curves (AUC) during the OGTT and ITT were calculated using the formula: 0.25 (fasting value)+0.5 (½ h value)+0.75 (1 h value)+0.5 (2 h value).
The glucose tolerance and insulin tolerance tests were performed on mice that were fasted for 12 hours and then injected with 10% D-glucose (1 g/kg) or human regular insulin (0.75 units/kg body weight, Eli Lilly and Co., Indianapolis, Ind.) in procedures separated by at least one week. Tail vein blood (5-10 μl) was assayed for glucose at 0, 30, 60, and 120 minutes. Blood glucose was assayed using a glucose meter (Hemocue, Mission Viejo, Calif.). The area under the glucose and insulin curves (AUC) during the OGTT and ITT were calculated using the formula: 0.25 (fasting value)+0.5 (½ h value)+0.75 (1 h value)+0.5 (2 h value), as described by Haffner et al., N. Engl.
as §5

lipoprotein lipase (LPL) = experiment: LPL enzyme activity in peritoneal macrophages from treated mice; assay type: in vivo, mouse; settings: ATM^+/+ mice treated systemically, vs saline
ATM [7] = molecular target: T1, ATM; experiment: Activated ATM (Ser1981P-ATM Western blot) in monocytes of treated subjects; assay type: in vivo; set-up: lysates were immunoprecipitated using a total ATM antibody (D1611); endogenous in cells; host or cells: adherent peripheral blood monocytes from human subjects with metabolic syndrome
Experimental: Anticoagulated blood was added to commercially available tubes containing Histopaque, and mononuclear cells were collected after centrifugation. These cells were subjected to a brief second spin using a discontinuous sucrose gradient to remove platelets (which can interfere with the adherence of monocytes to culture dishes), then the mononuclear cells were placed in tissue culture dishes. Two hours later, lymphocytes were washed away, and adherent monocytes were collected and frozen in appropriate media so that cells from different limbs of the protocol can subsequently be studied in the same assays. […] For activated ATM determinations, lysates were immunoprecipitated using a total ATM antibody (D1611). The immunoprecipitated samples were blotted for activated ATM using a monoclonal antibody recognizing Ser1981P-ATM. The gels included a positive control of 293 cells treated with camptothecin. Total lysates were used to blot activated p53 using a polyclonal antibody to Ser15P-p53 (cell signaling). To confirm the p53 data, total lysates were tested using an ELISA-based p53 DNA binding assay (TransAM p53 activity assay from Active Motif).
Target sequence in this assay (Q13315 whole entry): as the sequence (Q13315 whole entry, species assumed) above

ATM^+/+ apoE^−/− mice = experiment: Atherosclerosis by the en face technique in Western diet-fed mice; assay type: in vivo, mouse; settings: 7 mg/kg/week i.p., 8 weeks Western diet, vs saline
Experimental: Atherosclerosis was measured using the en face or aortic origin technique. For the former, pinned aortas were imaged with a digital camera and analyzed by using an image-processing program. The percentage of involvement of the intimal surface area is reported for the arch (encompassing the surface from the aortic valve to the left subclavian artery), the thoracic aorta (extending to the final intercostal artery), and the abdominal aorta (to the ileal bifurcation). For the aortic origin technique, mean lesion size for each animal was quantified by the degree of lipid staining of cross-sections of aortic tissue as described. Anesthetized mice were exsanguinated, the heart and aortic arch were perfused, then tissues were removed en bloc and frozen immediately in tissue freeze medium. For each sample, 64 sections were made on a cryostat beginning just caudal to the aortic sinus and extending into the proximal aorta at 10 μm intervals. Slides were fixed with 60% isopropanol and stained with Oil Red O. For each heart, lesions in eight sections at 80 μm intervals were quantified using image analysis software calibrated using a hemocytometer grid.
as §5
The quantification of aortic lesions involved cleaning the aortas and pinning them on a wax matrix with the intimal surface facing upward (en face). Images were captured with a digital camera, edited for artifacts, and data were reported as the percent involvement of the arch (encompassing the surface from the aortic valve to the left subclavian artery), thoracic aorta (extending to the last intercostal artery), and abdominal aorta (to the ileal bifurcation). At the time of isolation, hearts were embedded in optical coherence tomography (OCT) media and frozen to permit quantification of lesion formation by staining of serial cryostat-cut sections of the aortic sinus, if necessary.

[8] = system: ATM^+/+ apoE^−/− and ATM^−/− apoE^−/− mice; experiment: Tail-cuff systolic and diastolic blood pressure in Western diet-fed mice; assay type: in vivo, mouse; settings: 7 mg/kg/week, 8 weeks Western diet, vs saline
Experimental: Systolic blood pressure (SBP) and diastolic blood pressure (DBP) were measured after 8 weeks of Western diet feeding in ATM^+/+, ATM^+/−, and ATM^−/− mice. […] A plethysmography device (such as those supplied by Kent Scientific, Litchfield, Conn.) was used for tail cuff blood pressure determinations in acclimated, warmed mice performed by a technician blinded to treatment status, according to the manufacturer's instructions. Results were reported as the mean of 5-8 measurements on each day of 3 consecutive days.
Systolic and diastolic blood pressures were measured over several days in conscious mice using a tail-cuff system (Kent Scientific, Litchfield, Conn.) as described (Bernal-Mizrachi et al., 2003; Nat. Med. 9:1069-1075). Animals were habituated to the blood pressure apparatus for several days before data were collected. Five to eight measurements were recorded for each mouse at each of three daily sessions. Results are presented as the mean of those measurements on consecutive days.

[9] = system: subjects with the metabolic syndrome; experiment: Fasting lipids and lipoproteins in subjects with the metabolic syndrome; assay type: in vivo, human; settings: for Total Cholesterol / HDL cholesterol / LDL cholesterol / Triglycerides: 3 weeks; for Total Cholesterol: average of two subjects, placebo 206; for HDL cholesterol: placebo 47; for LDL cholesterol: placebo 132; for Triglycerides: placebo 139
[10] = system: ApoE-null model mice lacking a single allele of ATM; experiment: ApoE-null mice lacking a single allele of ATM on high fat diet, chloroquine treatment; assay type: in vivo, mouse; settings: 7 mg/kg per week
db/db mice = experiment: Fed blood glucose in db/db mice; assay type: in vivo, mouse; settings: male db/db mice, vs baseline and saline
Experimental: as §3, §4

JNK = experiment: Phospho-JNK ELISA in cultured aortic smooth muscle cells after antisense transfection; assay type: cell-based, mouse; settings: aortic smooth muscle cells from ATM^+/+apoE^−/− mice, 1.4 μmol/L, 72 hours
Experimental: When cultured aortic smooth muscle cells were treated with a morpholino antisense oligonucleotide to ATM, JNK activity was increased, providing direct evidence that interfering with ATM expression induces JNK activity, a mediator of insulin resistance. Analysis of phospho-JNK in vascular smooth muscle cells cultured from ATM^+/+apoE^−/− mice. Primary aortic smooth muscle cells were transfected with an anti-ATM oligonucleotide, or a control oligonucleotide or the vehicle ethoxylated polyethylenimine solution only. Cells were assayed by ELISA for phospho-JNK and total JNK as measured in U/ml/well of a 96-well plate. […] Increased expression of phospho-JNK was detected in tissues involved in systemic insulin action in all three ATM genotypes in apoE^−/− mice, as determined by analysis of Western blots for fat, skeletal muscle and liver. Comparisons were made between ATM-deficient and ATM wild-type animals.
Most of the mass of the aorta is composed of smooth muscle cells. Smooth muscle cells were cultured from the aortas of apoE^−/− mice by the explant technique as described by Weng et al., Proc. Natl. Acad. Sci. USA, 2003, 100:6730-6735. […] Successful transfection was confirmed by fluorescence microscopy and phospho-JNK and total JNK were assayed 72 hours later using a cell-based ELISA kit. […]

[11] = 80 mg/day, first stage of clamp, mean of two subjects
[12] = 1000 mg/day for three days (Powrie et al.)
[13] = 80 mg/day for three weeks, two subjects

ATM activation in cultured cells (ATM [3]): activates
LPL enzyme activity in peritoneal macrophages (lipoprotein lipase (LPL)): decreased
ATM activation (ATM [7]; 80 mg/day dose): greater activation
ATM activation (ATM [7]; 250 mg/day dose): blunted effect
activation of ATM in monocytes (ATM [7]; three weeks of 80 mg/day or 250 mg/day, none with placebo): activation; also recorded: activated
Molecule: CCN(CC)CCCC(C)Nc1ccnc2cc(Cl)ccc12 (stereo not shown) [chloroquine, N4-(7-Chloro-4-quinolinyl)-N1,N1-diethyl-1,4-pentanediamine]
p53 activation in fat and muscle as well as liver, aorta and cultured macrophages (p53): p53 activation
increase in glucose infusion rate compared to placebo ([1]; 80 mg dose, second stage of clamp (insulin 40 mU/m^2/min)): 23%
increase in glucose infusion rate to maintain the blood glucose ([1]; 80 mg per day oral, 3 weeks, first stage of clamp (insulin 15 mU/m^2/min), mean of two subjects): 63%
decrease of hepatic glucose production [1, 11]: 58%
increase of glucose disposal in peripheral tissues [1, 11]: 62%
glucose infusion rate effect ([1]; 250 mg dose, clamp first and second stage): blunted effect
serum lipids (fasting cholesterol, triglycerides, NEFA) [2]: no effect
cumulative doses with no effects (retinopathy) (retina): 300 grams
endogenous glucose production [4, 12]: without affecting
insulin resistance in peripheral tissues [4, 12]: modestly decreased
increase in the glucose infusion rate required to maintain euglycemia ([4]; 1000 mg/day for three days, patients with type 2 diabetes): 13%
ambulatory blood pressures (systolic, diastolic, mean arterial) [5]: did not appear to be affected
fasting insulin levels (ob/ob mice; 7 mg/kg/week, saline 16,810±1,120, P<0.05): 13,360±1996 pg/ml
fasting glucose levels (ob/ob mice; 3 weeks after initiation, vs baseline and saline): lowered
fed glucose levels (ob/ob mice; vs baseline and saline): lowered
glucose tolerance ([6]; ATM^+/+ apoE^−/− mice, 7 mg/kg/week, 8 weeks Western diet, vs saline): improved
glucose tolerance ([6]; ATM^−/−apoE^−/− mice, Western diet): not
decrease of atherosclerosis (lesion area) at the abdominal aorta (ATM^+/+ apoE^−/− mice): 25%
decrease of atherosclerosis (lesion area) at the arch (ATM^+/+ apoE^−/− mice): 37%
decrease of atherosclerosis (lesion area) at the thoracic aorta (ATM^+/+ apoE^−/− mice): 25%
lowering of systolic pressure [8]: 9 mm Hg
decrease in LDL cholesterol [9, 13]: 25%
decrease in total cholesterol [9, 13]: 17%
decrease in triglycerides [9, 13]: 10%
Total Cholesterol ([9]; chloroquine 80 mg/day): 172 mg/dL
HDL cholesterol ([9]; chloroquine 80 mg/day): 47 mg/dL
LDL cholesterol ([9]; chloroquine 80 mg/day): 100 mg/dL
Triglycerides ([9]; chloroquine 80 mg/day): 125 mg/dL
Total Cholesterol ([9]; chloroquine 250 mg/day): 169 mg/dL
HDL cholesterol ([9]; chloroquine 250 mg/day): 51 mg/dL
LDL cholesterol ([9]; chloroquine 250 mg/day): 99 mg/dL
Triglycerides ([9]; chloroquine 250 mg/day): 129 mg/dL
atherosclerosis [10]: significantly reduced
central adiposity [10]: significantly reduced
glucose intolerance [10]: significantly reduced
hypertension [10]: significantly reduced
fed glucose levels (db/db mice): lowered

Molecule: anti-ATM: lissamine-tagged Morpholino antisense oligonucleotide against mouse ATM, 5′-GTGCTAGACTCATGGTTTAAGATTT-3′ (SEQ ID NO:6) (all phosphorodiamidate morpholino (PMO); lissamine tag, position not given here)
JNK activity (phospho-JNK normalized to total JNK) (JNK): increased
